Assay results: patent publication US12552825B2 (Zikani Therapeutics, Inc., priority 2019, dated 2026)
Values after ≈ are worked out from the molar mass of the structure shown.

What was measured:
Type in all cases: cell-based
E. coli MP-4 = experiment: MIC determination by CLSI broth dilution, E. coli MP-4; conditions: strain MP-4; for MIC: Escherichia coli, MP4, CLSI broth dilution
K. pneumoniae MP-648 = experiment: MIC determination by CLSI broth dilution, K. pneumoniae MP-648; conditions: strain MP-648; for MIC: Klebsiella pneumoniae, MP648, CLSI broth dilution
A. baumannii MP-15 = experiment: MIC determination by CLSI broth dilution, A. baumannii MP-15; conditions: Acinetobacter baumannii, MP15, strain MP-15, read-out: MIC A. baumanii MP-15
K. pneumoniae MP-546 = experiment: MIC determination by CLSI broth dilution, K. pneumoniae MP-546; conditions: strain MP-546; for MIC: Klebsiella pneumoniae, MP546, CLSI broth dilution
P. aeruginosa MP-3 = experiment: MIC determination by CLSI broth dilution, P. aeruginosa MP-3; conditions: Pseudomonas aeruginosa, MP3, strain MP-3
S. aureus MP-12 = experiment: microbe, parasite or virus in culture; conditions: Staphylococcus aureus, MP12, read-out: MIC S. aureus MP-12

SMILES	MIC (E. coli MP-4)	MIC (K. pneumoniae MP-648)	MIC (A. baumannii MP-15)	MIC (K. pneumoniae MP-546)	MIC (P. aeruginosa MP-3)	MIC (S. aureus MP-12)	MIC E. coli MP-4 (E. coli MP-4; CLSI broth dilution)	MIC K. pneumoniae MP-648 (K. pneumoniae MP-648; CLSI broth dilution)	MIC K. pneumoniae MP-546 (K. pneumoniae MP-546; CLSI broth dilution)
CCN1C[C@H](C)C[C@@](C)(OC)[C@H](O[C@@H]2O[C@H](C)C[C@H](N(C)C)[C@H]2O)[C@@H](C)C(=O)C(C)(C)C(=O)OC[C@@H]1CCCN(C)C(C)C [Compound 10, (3S,6R,8R,9R,10R)-9-(((2S,3R,4S,6R)-4-(dimethylamino)-3-hydroxy-6-methyltetrahydro-2H-pyran-2-yl)oxy)-4-ethyl-3-(3-(isopropyl(methyl)amino)propyl)-8-methoxy-6,8,10,12,12-pentamethyl-1-oxa-4-azacyclotridecane-11,13-dione]	< 4 µg/mL	< 4 µg/mL	> 32 µg/mL	< 4 µg/mL	> 32 µg/mL	< 4 µg/mL	–	–	–
CO[C@]1(C)C[C@@H](C)CN(C)[C@H](CCCN(C)C(C)C)COC(=O)C(C)(C)C(=O)[C@H](C)[C@H]1O[C@@H]1O[C@H](C)C[C@H](N(C)C)[C@H]1O [Compound 12, (3R,6R,8R,9R,10R)-9-(((2S,3R,4S,6R)-4-(dimethylamino)-3-hydroxy-6-methyltetrahydro-2H-pyran-2-yl)oxy)-3-(3-(isopropyl(methyl)amino)propyl)-8-methoxy-4,6,8,10,12,12-hexamethyl-1-oxa-4-azacyclotridecane-11,13-dione]	< 4 µg/mL	< 4 µg/mL	> 32 µg/mL	< 4 µg/mL	> 32 µg/mL	4 to 32 µg/mL (≈ 6.52 to 52.1 µM)	–	–	–
CCCN1C[C@H](C)C[C@@](C)(OC)[C@H](O[C@@H]2O[C@H](C)C[C@H](N(C)C)[C@H]2O)[C@@H](C)C(=O)C(C)(C)C(=O)OC[C@@H]1CCCN(C)C(C)C [Compound 18, (3S,6R,8R,9R,10R)-9-(((2S,3R,4S,6R)-4-(dimethylamino)-3-hydroxy-6-methyltetrahydro-2H-pyran-2-yl)oxy)-3-(3-(isopropyl(methyl)amino)propyl)-8-methoxy-6,8,10,12,12-pentamethyl-4-propyl-1-oxa-4-azacyclotridecane-11,13-dione]	< 4 µg/mL	< 4 µg/mL	> 32 µg/mL	< 4 µg/mL	> 32 µg/mL	< 4 µg/mL	–	–	–
CCCN1C[C@H](C)C[C@@](C)(OC)[C@H](O[C@@H]2O[C@H](C)C[C@H](N(C)C)[C@H]2O)[C@@H](C)C(=O)C(C)(C)C(=O)OC[C@H]1CCCN(C)C [Compound 21, (3R,6R,8R,9R,10R)-9-(((2S,3R,4S,6R)-4-(dimethylamino)-3-hydroxy-6-methyltetrahydro-2H-pyran-2-yl)oxy)-3-(3-(dimethylamino)propyl)-8-methoxy-6,8,10,12,12-pentamethyl-4-propyl-1-oxa-4-azacyclotridecane-11,13-dione]	< 4 µg/mL	< 4 µg/mL	> 32 µg/mL	< 4 µg/mL	< 4 µg/mL	4 to 32 µg/mL (≈ 6.52 to 52.1 µM)	–	–	–
CCCCCCCN1CCC([C@@H](O)[C@H]2COC(=O)C(C)(C)C(=O)[C@H](C)[C@@H](O[C@@H]3O[C@H](C)C[C@H](N(C)C)[C@H]3O)[C@](C)(OC)C[C@@H](C)CN2C)CC1 [Compound 22]	< 4 µg/mL	> 32 µg/mL	> 32 µg/mL	4 to 32 µg/mL (≈ 5.62 to 44.9 µM)	> 32 µg/mL	> 32 µg/mL	–	–	–
CO[C@]1(C)C[C@@H](C)CN(C)[C@@H]([C@H](O)C2CCN(CC3CC3)CC2)COC(=O)C(C)(C)C(=O)[C@H](C)[C@H]1O[C@@H]1O[C@H](C)C[C@H](N(C)C)[C@H]1O [Compound 23, (3R,6R,8R,9R,10R)-3-((R)-(1-(cyclopropylmethyl)piperidin-4-yl)(hydroxy)methyl)-9-(((2S,3R,4S,6R)-4-(dimethylamino)-3-hydroxy-6-methyltetrahydro-2H-pyran-2-yl)oxy)-8-methoxy-4,6,8,10,12,12-hexamethyl-1-oxa-4-azacyclotridecane-11,13-dione]	4 to 32 µg/mL (≈ 5.99 to 47.9 µM)	4 to 32 µg/mL (≈ 5.99 to 47.9 µM)	> 32 µg/mL	4 to 32 µg/mL (≈ 5.99 to 47.9 µM)	> 32 µg/mL	4 to 32 µg/mL (≈ 5.99 to 47.9 µM)	–	–	–
CCCN1CCC([C@@H](O)[C@H]2COC(=O)C(C)(C)C(=O)[C@H](C)[C@@H](O[C@@H]3O[C@H](C)C[C@H](N(C)C)[C@H]3O)[C@](C)(OC)C[C@@H](C)CN2C)CC1 [Compound 24]	4 to 32 µg/mL (≈ 6.1 to 48.8 µM)	> 32 µg/mL	> 32 µg/mL	4 to 32 µg/mL (≈ 6.1 to 48.8 µM)	> 32 µg/mL	4 to 32 µg/mL (≈ 6.1 to 48.8 µM)	–	–	–
CO[C@]1(C)C[C@@H](C)CN(C)[C@@H]([C@H](O)C2CCN(CC3CCCCC3)CC2)COC(=O)C(C)(C)C(=O)[C@H](C)[C@H]1O[C@@H]1O[C@H](C)C[C@H](N(C)C)[C@H]1O [Compound 25]	< 4 µg/mL	4 to 32 µg/mL (≈ 5.63 to 45.1 µM)	> 32 µg/mL	4 to 32 µg/mL (≈ 5.63 to 45.1 µM)	> 32 µg/mL	> 32 µg/mL	–	–	–
CO[C@]1(C)C[C@@H](C)CN(C)[C@H]([C@@H](O)C2CCN(CC3CC3)CC2)COC(=O)C(C)(C)C(=O)[C@H](C)[C@H]1O[C@@H]1O[C@H](C)C[C@H](N(C)C)[C@H]1O [Compound 26]	–	–	> 32 µg/mL	–	> 32 µg/mL	> 32 µg/mL	+++ (values less than or equal to 4 mg/L)	++ (values of greater than 4 mg/L and less than or equal to 32 mg/L)	++ (values of greater than 4 mg/L and less than or equal to 32 mg/L)
CO[C@]1(C)C[C@@H](C)CN(C)[C@H]([C@@H](O)C2CCN(C(C)C)CC2)COC(=O)C(C)(C)C(=O)[C@H](C)[C@H]1O[C@@H]1O[C@H](C)C[C@H](N(C)C)[C@H]1O [Compound 27]	4 to 32 µg/mL (≈ 6.1 to 48.8 µM)	> 32 µg/mL	> 32 µg/mL	4 to 32 µg/mL (≈ 6.1 to 48.8 µM)	> 32 µg/mL	> 32 µg/mL	–	–	–
COCO[C@@H](C1CCN(CC2CC2)CC1)[C@@H]1COC(=O)C(C)(C)C(=O)[C@H](C)[C@@H](O[C@@H]2O[C@H](C)C[C@H](N(C)C)[C@H]2O)[C@](C)(OC)C[C@@H](C)CN1C [Compound 29]	4 to 32 µg/mL (≈ 5.62 to 44.9 µM)	> 32 µg/mL	> 32 µg/mL	> 32 µg/mL	> 32 µg/mL	4 to 32 µg/mL (≈ 5.62 to 44.9 µM)	–	–	–
